Source: EP2093218A1, “Arylalkyl substituted imidazolidinones” (Fariello, Ruggero, priority 2008, dated 2009)
Marks after values point to notes of the source that are not given here.

Experiments:
mice = assay: Maximal Electroshock Test (MES); assay type: in vivo; conditions: for MES % Protection from Tonic Extension: 20 mice; for Time of Straightening Reflex Loss: mean of 20 mice
Protocol: MES seizures were induced by electroconvulsometer (ECT Unit Ugo Basile, Italy). Mice received an electroshock (50 mA at 60 Hz for 0.2 s duration) through intra-corneal electrodes. This current intensity elicited complete tonic extension of the hindlimbs in control mice. The stimulus was applied 30 min or 60 min after intraperitoneal (i.p.) or oral (p.o.) administration of the test compound, respectively. To evaluate the drug effect on the seizure severity, time of Straightening Reflex Loss and the presence of tonic hindlimb extension were selected as the parameters.

PTZ-treated mice = assay: Chemically induced seizures (pentylenetetrazole, PTZ); assay type: in vivo; conditions: for % Protection on PTZ induced convulsions: PTZ 90 mg/kg i.p. 30 min after compound, 20 mice
Protocol: Seizure-inducer pentylenetetrazole (PTZ) (90 mg/kg i.p.) was administered to mice 30 min after i.p. administration of the test compound.
Compound of Example 1 at the doses of 10 and 30 mg/kg i.p. was able to protect the animals from PTZ-induced convulsions. […]

[1] = 10 mg/kg i.p., stimulus 30 min after administration
[2] = 30 mg kg^-1 p.o., stimulus 60 min after administration

## C[C@H]1C(=O)NC(C)(C)N1Cc1ccc(OCc2cccc(F)c2)cc1 [Example 1, (S)-(-)-1-[4-(3-Fluoro-benzyloxy)-benzyl]-2,2,5-trimethyl-imidazolidin-4-one]
mice; [1]
  MES % Protection from Tonic Extension: 50* %
  Time of Straightening Reflex Loss: 66.8 ± 9.3 s
mice; [2]
  MES % Protection from Tonic Extension: 30%
  Time of Straightening Reflex Loss: 56.8 ± 6.3 s
mice; either after i.p. (10 mg/kg) or oral (30 mg/kg) administration
  anticonvulsant activity in MES test (in words): significant anticonvulsant activity
PTZ-treated mice; 3 mg/kg i.p.
  % Protection on PTZ induced convulsions: 0%
PTZ-treated mice; 10 mg/kg i.p.
  % Protection on PTZ induced convulsions: 40%
PTZ-treated mice; 30 mg/kg i.p.
  % Protection on PTZ induced convulsions: 90%
PTZ-treated mice; highest dose (30 mg/kg i.p.)
  protection from PTZ-induced convulsions (in words): almost complete
